Source: patent publication US4472383A, “Peptide derivatives, their production and use” (Takeda Chemical Industries, Ltd., priority 1982, dated 1984)

Test system: Hypertensive Activity of Angiotensin I
Assay: Effect against hypertensive activity of angiotensin I in anesthetized-prepared rats (oral administration)
Format: in vivo, Male rats (Sprague-Dawley)
Conditions: rat, 13.8 μM/kg orally, angiotensin I 300 ng/kg i.v., corrected for angiotensin II response; for Percent Inhibition (%) against Hypertensive Reaction by Angiotensin I After 20 min.: 20 min after administration; for Percent Inhibition (%) against Hypertensive Reaction by Angiotensin I After 60 min.: 60 min after administration; for Percent Inhibition (%) against Hypertensive Reaction by Angiotensin I After 120 min.: 120 min after administration
Description: Effect of Present Compounds against Hypertensive Activity of Angiotensin I Male rats (Sprague-Dawley) weighing 250 g to 350 g which were fed under free access to drinking water and feeds were used as experimental animals. The rats were anesthetized with intraperitoneal administration of pentobarbital sodium (50 mg/kg) on the day before the test day and a polyethylene tube was inserted into each of the femoral artery for measurement of blood pressure and the femoral vein for injection of angiotensin I and II, and then the tubes were fixed. […] Then, 13.8 μM/kg of the compound of this invention was administered orally as an aqueous solution or an aqueous gum arabic suspension, and 20, 60 and 120 minutes after the administration, angiotensin I and II were injected repeatedly to trace hypertensive reactions. In calculating the percent inhibition to the hypertensive activity of angiotensin I, the percent inhibitory value was corrected based on the variation with time in the hypertensive reaction by angiotensin II.

Compound | Percent Inhibition (%) against Hypertensive Reaction by Angiotensin I After 20 min. [%] | Percent Inhibition (%) against Hypertensive Reaction by Angiotensin I After 60 min. [%] | Percent Inhibition (%) against Hypertensive Reaction by Angiotensin I After 120 min. [%]
CCCCOC(=O)[C@H](CCc1ccccc1)N[C@@H](C)C(=O)N(CC(=O)N[C@@H](Cc1ccccc1)C(=O)O)C1CCCC1.Cl [Example 6, N-[1(S)-butoxycarbonyl-3-phenylpropyl]-L-alanyl-N-cyclopentylglycyl-L-phenylalanine hydrochloride] | 72 | 84 | 72
Br.CCOC(=O)[C@H](CCc1ccccc1)N[C@@H](C)C(=O)N(CC(=O)N[C@@H](Cc1ccccc1)C(=O)O)C1Cc2ccccc2C1 [Example 3, N-[1(S)-ethoxycarbonyl-3-phenylpropyl]-L-alanyl-N-(2-indanyl)glycyl-L-phenylalanine hydrobromide] | 67 | 73 | 77
